# ChEMBL document CHEMBL1671626, “In vitro profiling of ceftaroline against a collection of recent bacterial clinical isolates from across the United States” (2008)
# Legend:
# Type in all cases: functional
# [1] = tested on: Enterobacteriaceae; test: Antibacterial activity against ceftazidime-susceptible Enterobacteriaceae by CLSI M7-A7 broth microdilution method
# [2] = tested on: Enterobacteriaceae; test: Antibacterial activity against ceftazidime-susceptible Enterobacteriaceae assessed as susceptible isolates by CLSI M7-A7 broth microdilution method
# [3] = tested on: Enterobacteriaceae; test: Antibacterial activity against ceftazidime-susceptible Enterobacteriaceae assessed as resistant isolates by CLSI M7-A7 broth microdilution method
# [4] = tested on: Enterobacteriaceae; test: Antibacterial activity against ceftazidime-nonsusceptible Enterobacteriaceae by CLSI M7-A7 broth microdilution method
# [5] = tested on: Enterobacteriaceae; test: Antibacterial activity against ceftazidime-nonsusceptible Enterobacteriaceae assessed as susceptible isolates by CLSI M7-A7 broth microdilution method
# [6] = tested on: Enterobacteriaceae; test: Antibacterial activity against ceftazidime-nonsusceptible Enterobacteriaceae assessed as resistant isolates by CLSI M7-A7 broth microdilution method
# [7] = tested on: Citrobacter freundii; test: Antibacterial activity against ceftazidime-susceptible Citrobacter freundii by CLSI M7-A7 broth microdilution method
# [8] = tested on: Citrobacter freundii; test: Antibacterial activity against ceftazidime-susceptible Citrobacter freundii assessed as susceptible isolates by CLSI M7-A7 broth microdilution method
# [9] = tested on: Citrobacter freundii; test: Antibacterial activity against ceftazidime-susceptible Citrobacter freundii assessed as resistant isolates by CLSI M7-A7 broth microdilution method
# [10] = tested on: Citrobacter freundii; test: Antibacterial activity against ceftazidime-nonsusceptible Citrobacter freundii by CLSI M7-A7 broth microdilution method
# [11] = tested on: Citrobacter freundii; test: Antibacterial activity against ceftazidime-nonsusceptible Citrobacter freundii assessed as susceptible isolates by CLSI M7-A7 broth microdilution method
# [12] = tested on: Citrobacter freundii; test: Antibacterial activity against ceftazidime-nonsusceptible Citrobacter freundii assessed as resistant isolates by CLSI M7-A7 broth microdilution method
# [13] = tested on: Enterobacter cloacae; test: Antibacterial activity against ceftazidime-susceptible Enterobacter cloacae by CLSI M7-A7 broth microdilution method
# [14] = tested on: Enterobacter cloacae; test: Antibacterial activity against ceftazidime-susceptible Enterobacter cloacae assessed as susceptible isolates by CLSI M7-A7 broth microdilution method
# [15] = tested on: Enterobacter cloacae; test: Antibacterial activity against ceftazidime-susceptible Enterobacter cloacae assessed as resistant isolates by CLSI M7-A7 broth microdilution method
# [16] = tested on: Enterobacter cloacae; test: Antibacterial activity against ceftazidime-nonsusceptible Enterobacter cloacae by CLSI M7-A7 broth microdilution method
# [17] = tested on: Enterobacter cloacae; test: Antibacterial activity against ceftazidime-nonsusceptible Enterobacter cloacae assessed as resistant isolates by CLSI M7-A7 broth microdilution method
# [18] = tested on: Escherichia coli; test: Antibacterial activity against ceftazidime-susceptible Escherichia coli by CLSI M7-A7 broth microdilution method
# [19] = tested on: Escherichia coli; test: Antibacterial activity against ceftazidime-susceptible Escherichia coli assessed as susceptible isolates by CLSI M7-A7 broth microdilution method
# [20] = tested on: Escherichia coli; test: Antibacterial activity against ceftazidime-susceptible Escherichia coli assessed as resistant isolates by CLSI M7-A7 broth microdilution method
# [21] = tested on: Escherichia coli; test: Antibacterial activity against ceftazidime-nonsusceptible Escherichia coli by CLSI M7-A7 broth microdilution method
# [22] = tested on: Escherichia coli; test: Antibacterial activity against ceftazidime-nonsusceptible Escherichia coli assessed as susceptible isolates by CLSI M7-A7 broth microdilution method
# [23] = tested on: Escherichia coli; test: Antibacterial activity against ceftazidime-nonsusceptible Escherichia coli assessed as resistant isolates by CLSI M7-A7 broth microdilution method
# [24] = tested on: Klebsiella pneumoniae; test: Antibacterial activity against ceftazidime-susceptible Klebsiella pneumoniae by CLSI M7-A7 broth microdilution method
# [25] = tested on: Klebsiella pneumoniae; test: Antibacterial activity against ceftazidime-susceptible Klebsiella pneumoniae assessed as resistant isolates by CLSI M7-A7 broth microdilution method
# [26] = tested on: Klebsiella pneumoniae; test: Antibacterial activity against ceftazidime-nonsusceptible Klebsiella pneumoniae by CLSI M7-A7 broth microdilution method
# [27] = tested on: Klebsiella pneumoniae; test: Antibacterial activity against ceftazidime-nonsusceptible Klebsiella pneumoniae assessed as susceptible isolates by CLSI M7-A7 broth microdilution method
# [28] = tested on: Klebsiella pneumoniae; test: Antibacterial activity against ceftazidime-nonsusceptible Klebsiella pneumoniae assessed as resistant isolates by CLSI M7-A7 broth microdilution method
# [29] = tested on: Morganella morganii; test: Antibacterial activity against ceftazidime-susceptible Morganella morganii by CLSI M7-A7 broth microdilution method
# [30] = tested on: Morganella morganii; test: Antibacterial activity against ceftazidime-susceptible Morganella morganii assessed as susceptible isolates by CLSI M7-A7 broth microdilution method
# [31] = tested on: Morganella morganii; test: Antibacterial activity against ceftazidime-susceptible Morganella morganii assessed as resistant isolates by CLSI M7-A7 broth microdilution method
# [32] = tested on: Proteus mirabilis; test: Antibacterial activity against ceftazidime-susceptible Proteus mirabilis by CLSI M7-A7 broth microdilution method
# [33] = tested on: Proteus mirabilis; test: Antibacterial activity against ceftazidime-susceptible Proteus mirabilis assessed as susceptible isolates by CLSI M7-A7 broth microdilution method
# [34] = tested on: Proteus mirabilis; test: Antibacterial activity against ceftazidime-susceptible Proteus mirabilis assessed as resistant isolates by CLSI M7-A7 broth microdilution method
# [35] = tested on: Serratia marcescens; test: Antibacterial activity against ceftazidime-susceptible Serratia marcescens by CLSI M7-A7 broth microdilution method
# [36] = tested on: Serratia marcescens; test: Antibacterial activity against ceftazidime-susceptible Serratia marcescens assessed as resistant isolates by CLSI M7-A7 broth microdilution method
# [37] = tested on: Acinetobacter; test: Antibacterial activity against multidrug-resistant Acinetobacter by CLSI M7-A7 broth microdilution method
# [38] = tested on: Acinetobacter; test: Antibacterial activity against multidrug-resistant Acinetobacter assessed as susceptible isolates by CLSI M7-A7 broth microdilution method
# [39] = tested on: Acinetobacter; test: Antibacterial activity against multidrug-resistant Acinetobacter assessed as resistant isolates by CLSI M7-A7 broth microdilution method
# [40] = tested on: Acinetobacter; test: Antibacterial activity against imipenem-susceptible Acinetobacter by CLSI M7-A7 broth microdilution method
# [41] = tested on: Acinetobacter; test: Antibacterial activity against imipenem-susceptible Acinetobacter assessed as susceptible isolates by CLSI M7-A7 broth microdilution method
# [42] = tested on: Acinetobacter; test: Antibacterial activity against imipenem-susceptible Acinetobacter assessed as resistant isolates by CLSI M7-A7 broth microdilution method
# [43] = tested on: Haemophilus influenzae; test: Antibacterial activity against beta lactamase-negative Haemophilus influenzae by CLSI M7-A7 broth microdilution method
# [44] = tested on: Haemophilus influenzae; test: Antibacterial activity against beta lactamase-positive Haemophilus influenzae by CLSI M7-A7 broth microdilution method
# [45] = tested on: Haemophilus influenzae; test: Antibacterial activity against beta lactamase-positive Haemophilus influenzae assessed as susceptible isolates by CLSI M7-A7 broth microdilution method
# [46] = tested on: Providencia sp.; test: Antibacterial activity against ceftazidime-susceptible Providencia sp. by CLSI M7-A7 broth microdilution method
# [47] = tested on: Providencia sp.; test: Antibacterial activity against ceftazidime-susceptible Providencia sp. assessed as susceptible isolates by CLSI M7-A7 broth microdilution method
# [48] = tested on: Providencia sp.; test: Antibacterial activity against ceftazidime-susceptible Providencia sp. assessed as resistant isolates by CLSI M7-A7 broth microdilution method
sequence,measurement,setting,value
GENTAMICIN,MIC50,[1],0.5 mg/L
same,MIC90,[1],2 mg/L
same,Activity,[2],92.6%
same,Activity,[3],5.9%
same,MIC50,[4],4 mg/L
same,MIC90,[4],> 16 mg/L
same,Activity,[5],52.3%
same,Activity,[6],40.5%
same,MIC50,[7],0.5 mg/L
same,MIC90,[7],8 mg/L
same,Activity,[8],88%
same,Activity,[9],10%
same,MIC50,[10],0.5 mg/L
same,MIC90,[10],16 mg/L
same,Activity,[11],81.8%
same,Activity,[12],18.2%
same,MIC50,[13],0.25 mg/L
same,MIC90,[13],0.5 mg/L
same,Activity,[14],96%
same,Activity,[15],2%
same,MIC50,[16],0.5 mg/L
same,MIC90,[16],16 mg/L
same,Activity,[17],17.1%
same,MIC50,[18],0.5 mg/L
same,MIC90,[18],2 mg/L
same,Activity,[19],91.9%
same,Activity,[20],7.5%
same,MIC50,[21],16 mg/L
same,MIC90,[21],> 16 mg/L
same,Activity,[22],46%
same,Activity,[23],50.8%
same,MIC50,[24],0.25 mg/L
same,MIC90,[24],0.5 mg/L
same,Activity,[25],1.9%
same,MIC50,[26],8 mg/L
same,MIC90,[26],> 16 mg/L
same,Activity,[27],43.9%
same,Activity,[28],43.9%
same,MIC50,[29],0.5 mg/L
same,MIC90,[29],4 mg/L
same,Activity,[30],91.2%
same,Activity,[31],8.8%
same,MIC50,[32],1 mg/L
same,MIC90,[32],8 mg/L
same,Activity,[33],84.5%
same,Activity,[34],8.6%
same,MIC50,[35],0.5 mg/L
same,MIC90,[35],1 mg/L
same,Activity,[36],1.7%
same,MIC50,[37],> 16 mg/L
same,MIC90,[37],> 16 mg/L
same,Activity,[38],18.8%
same,Activity,[39],75%
same,MIC50,[40],1 mg/L
same,MIC90,[40],> 16 mg/L
same,Activity,[41],74.5%
same,Activity,[42],21.3%
same,MIC50,[43],1 mg/L
same,MIC90,[43],2 mg/L
same,MIC50,[44],1 mg/L
same,MIC90,[44],2 mg/L
same,Activity,[45],0%
same,MIC50,[46],2 mg/L
same,MIC90,[46],> 16 mg/L
same,Activity,[47],74.1%
same,Activity,[48],14.8%
